Tests used:
[1] = system: MDA-MB-231 (breast cancer) cells; assay: MTT cell proliferation assay, MDA-MB-231; format: cell-based; conditions: Homo sapiens, MDA-MB-231 (ER -ve), 48 h, read-out: IC50 values (mean ± SEM) MDA-MB-231
Protocol: (§3) MCF-7, MDA-MB231, and HEK293 cell lines were purchased from ATCC (Manassas, VA, United States). […] They were maintained in Dulbecco’s modified Eagle medium (DMEM) supplemented with 10% fetal bovine serum (FBS). Cells were cultured at 37°C and 5% CO2. Before the experiments, cells were cultured in phenol red-free DMEM supplemented with 10% charcoal stripped fetal bovine serum.

[2] = system: MCF-7 (breast cancer) cells; assay: MTT cell proliferation assay, MCF-7; format: cell-based; conditions: Homo sapiens, MCF7, MCF-7 (ER +ve), 48 h, read-out: IC50 values (mean ± SEM) MCF-7
Protocol: as §3

[3] = system: normal human embryonic kidney cell line HEK-293; assay: MTT assay, toxicity on normal cell line HEK-293; format: cell-based; conditions: HEK293, normal HEK-293 cells (toxicity), 48 h, read-out: IC50 values (mean ± SEM) HEK-293
Protocol: as §3

[4] = system: HeLa (cervical cancer) cells; assay: MTT cell proliferation assay, HeLa; format: cell-based; conditions: Homo sapiens, 48 h, read-out: IC50 values (mean ± SEM) HeLa
Protocol: (§1) We conducted an in vitro MTT assay to evaluate the anti-cancer activity of the synthesized neo-tanshinlactone–chalcone hybrid compounds, 26–37, against four human cancer cell lines, namely, MCF-7 (breast cancer), MDA-MB-231 (breast cancer), Ishikawa (endometrial cancer), and HeLa (cervical cancer). The toxicity of the hybrid molecules on the normal human embryonic kidney cell line HEK-293 was also evaluated.
(§2) The synthesized hybrid compounds were tested for their anti-cancer activity using the MTT reduction assay on 2.5 × 10^3 cells per well that were seeded in 100 µL DMEM supplemented with 10% FBS in each well of 96-well microculture plates. After seeding, the cells were incubated for 24 h at 37°C in a CO2 incubator. The required concentrations of the compounds were achieved by diluting the solutions in the culture medium. The media was removed from the wells after 48 h, and 100 µL of MTT (0.5 mg/mL) was added to each well. The plates were then incubated for an additional 3 h. After carefully removing the supernatant from each well, the formazan crystals were dissolved in 100 µL of DMSO. The absorbance was then recorded at a wavelength of 540 nm ([Saquib et al., 2021]; [Gupta et al., 2022]; [Iqbal et al., 2023])

[5] = system: Ishikawa (endometrial cancer) cells; assay: MTT cell proliferation assay, Ishikawa; format: cell-based; conditions: Homo sapiens, 48 h, read-out: IC50 values (mean ± SEM) Ishikawa
Protocol: as §1
MCF-7, MDA-MB231, and HEK293 cell lines were purchased from ATCC (Manassas, VA, United States). Ishikawa cell lines were obtained from the European Collection of Cell Cultures. They were maintained in Dulbecco’s modified Eagle medium (DMEM) supplemented with 10% fetal bovine serum (FBS). Cells were cultured at 37°C and 5% CO2. Before the experiments, cells were cultured in phenol red-free DMEM supplemented with 10% charcoal stripped fetal bovine serum.
as §2

tubulin = system: tubulin; set-up: method as in Miller et al., 1997; conditions: ref Miller et al., 1997; read-out: IC50, inhibition of polymerization of tubulin; cited from earlier work

Row | SMILES | IC50 [1] [µM] | IC50 [2] [µM] | IC50 [3] [µM] | IC50 [4] [µM] | IC50 [5] [µM] | melting point [°C] | IC50 (tubulin) [µM]
1 | COc1cc(OC)cc(C(=O)/C=C/c2cc(=O)oc3c2ccc2c(OC)cccc23)c1 [Compound 30, (E)-4-(3-(3,5-Dimethoxyphenyl)-3-oxoprop-1-en-1-yl)-7-methoxy-2H-benzo[h]chromen-2-one] | 8.5 ± 1.12 | 6.8 ± 1.48 | > 20 | – | – | – | –
2 | COc1cccc2c1ccc1c(/C=C/C(=O)c3ccc(Cl)cc3)cc(=O)oc12 [Compound 35] | > 20 | > 20 | > 20 | > 20 | > 20 | – | –
3 | COc1cc(C(=O)/C=C/c2cc(=O)oc3c2ccc2c(OC)cccc23)cc(OC)c1OC [Compound 33, (E)-7-Methoxy-4-(3-oxo-3-(3,4,5-trimethoxyphenyl)prop-1-enyl)-2H-benzo[h] chromen-2-one] | > 20 | 16.3 ± 2.3 | > 20 | > 20 | > 20 | > 260 | –
4 | O=C(/C=C/c1cc(=O)oc2c1ccc1ccccc12)c1ccccc1 [Compound 32, (E)-4-(3-Oxo-3-phenylprop-1-enyl)-2H-benzo[h]chromen-2-one] | > 20 | > 20 | > 20 | > 20 | > 20 | 245 to 246 | –
5 | COc1cccc2c1ccc1c(/C=C/C(=O)c3ccccc3)cc(=O)oc12 [Compound 29, (E)-7-Methoxy-4-(3-oxo-3-phenylprop-1-en-1-yl)-2H-benzo[h]chromen-2-one] | > 20 | > 20 | > 20 | > 20 | > 20 | 180 to 182 | –
6 | COc1ccc(C(=O)/C=C/c2cc(=O)oc3c2ccc2ccccc23)cc1 [Compound 27, (E)-4-(3-(4-Methoxyphenyl)-3-oxoprop-1-enyl)-2H-benzo[h]chromen-2-one] | > 20 | > 20 | > 20 | > 20 | 17.4 ± 2.72 | – | –
7 | O=C(/C=C/c1cc(=O)oc2c1ccc1ccccc12)c1ccc(Cl)cc1 [Compound 34] | > 20 | > 20 | > 20 | > 20 | > 20 | – | –
8 | COc1cc(OC)cc(C(=O)/C=C/c2cc(=O)oc3c2ccc2ccccc23)c1 [Compound 26, (E)-4-(3-(3,5-Dimethoxyphenyl)-3-oxoprop-1-en-1-yl)-2H-benzo[h]chromen-2-one] | 16.6 ± 1.25 | 17.2 ± 1.75 | > 20 | > 20 | > 20 | 272 to 273 | –
9 | O=C(/C=C/c1cc(=O)oc2c1ccc1ccccc12)c1ccc(Cl)c(Cl)c1 [Compound 36] | > 20 | > 20 | > 20 | 16.8 ± 3.14 | 19.2 ± 3.12 | – | –
10 | COc1cc(C(=O)/C=C/c2cc(=O)oc3c2ccc2ccccc23)cc(OC)c1OC [Compound 31, (E)-4-(3-Oxo-3-(3,4,5-trimethoxyphenyl)prop-1-enyl)-2H-benzo[h]chromen-2-one] | 15.7 ± 1.01 | 14.4 ± 1.68 | > 20 | > 20 | > 20 | – | –
11 | COc1cc2c(ccc1=O)[C@H]1CC[C@]3(C)[C@@H](O)CC[C@H]3[C@@H]1CC2 [2-Methoxyestradiol–colchicine hybrid A] | – | – | – | – | – | – | 2.1
12 | COc1cc2c(cc1O)CC[C@@H]1[C@@H]2CC[C@]2(C)[C@@H](O)CC[C@@H]12 [2-methoxyestradiol (2-ME), 2-methoxyestradiol] | – | – | – | – | – | – | 14.2
13 | COc1cccc2c1ccc1c(/C=C/C(=O)c3ccc(Cl)c(Cl)c3)cc(=O)oc12 [Compound 37] | > 20 | > 20 | > 20 | 17.2 ± 2.88 | 18.6 ± 2.56 | – | –
14 | COc1ccc(C(=O)/C=C/c2cc(=O)oc3c2ccc2c(OC)cccc23)cc1 [Compound 28, (E)-7-Methoxy-4-(3-(4-methoxyphenyl)-3-oxoprop-1-enyl)-2H-benzo[h]chromen-2-one] | > 20 | 18.6 ± 2.3 | > 20 | > 20 | > 20 | 236 to 237 | –
